{"source": "patent US20080312128A1", "about": "“Cellular Biomarker Antioxidant Assay and Uses Thereof” (priority 2005, published 2008)", "format_in_all_cases": "cell-based, human", "key": {"[1]": {"system": "HO-1", "experiment": "Vitamin C pretreatment, OS-induced HO-1 transcription in RPE cells", "conditions": "500 μM H2O2, 1 hour and 4 hours after OS", "protocol": "RNA was isolated from the cells using a no-rinse method after 1 hour or 4 hours of OS, and compared to no-OS controls. Gene-specific expression was quantified by real-time PCR on an ABI 7700 System. […] Experiments were carried out as described above. Briefly, ARPE19 cells were grown to confluence. […] Following RNA extraction and reverse transcription, real-time PCR was used to assess levels of gene transcripts, as described above. […] The data are normalized to 0 at time 0 in order to minimize the mild variability in starting values for the Ct seen within each experiment."}, "[2]": {"system": "FosB", "experiment": "Vitamin C pretreatment, OS-induced FosB transcription in RPE cells", "conditions": "for Inhibition of OS-induced FosB transcription: 0.0001-0.2 mM pretreatment", "protocol": "(§1) RNA was isolated from the cells using a no-rinse method after 1 hour or 4 hours of OS, and compared to no-OS controls. Gene-specific expression was quantified by real-time PCR on an ABI 7700 System. […] Experiments were carried out as described above. Briefly, ARPE19 cells were grown to confluence. […] Following RNA extraction and reverse transcription, real-time PCR was used to assess levels of gene transcripts, as described above. […] The data are normalized to 0 at time 0 in order to minimize the mild variability in starting values for the Ct seen within each experiment. […] OS strongly induces gene expression in our gene panel, and the number of transcripts (amount of induction) is proportional to the level of OS. Therefore, protective effects of an antioxidant such as Vitamin C would be expected to reduce the level of transcripts. A protective effect is reflected in an inverse dose dependent (DD) relationship between the level of antioxidant agent (Vitamin C) and the level of transcripts. Higher pretreatment levels with the antioxidant should lead to a lower level of transcripts after OS (a lower change in Ct). An extremely low dose of Vitamin C (0.0001 mM) was chosen in these studies as a homeopathic dose that is not expected to be protective and should be similar to the positive control. This control was added to ensure that all cultures were treated in the same way, as we have determined that even minimal manipulations can have significant effects upon expression of these genes."}, "[3]": {"system": "cFos", "experiment": "Vitamin C pretreatment, OS-induced cFos transcription in RPE cells", "protocol": "as §1"}, "[4]": {"system": "CRYBA", "experiment": "Vitamin C pretreatment, OS-induced CRYBA transcription in RPE cells", "conditions": "for Inhibition of OS-induced CRYBA transcription: 0.0001-0.2 mM pretreatment", "protocol": "as §1"}, "[5]": {"system": "ATF3", "experiment": "Vitamin C pretreatment, OS-induced ATF3 transcription in RPE cells", "protocol": "as §1, with “An extremely low dose of Vitamin C (0.0001 mM) was chosen in these studies as a homeopathic dose that is not expected to be protective and should be similar to the positive control.” left out"}}, "note": "Entries after “also recorded” stand apart in the source; their conditions may differ.", "data": [{"smiles": "O=C1O[C@H]([C@@H](O)CO)C(O)=C1O", "note": "[Vitamin C, L-ascorbic acid]", "values": [{"measurement": "Response of HO-1 transcription after OS to pretreatment", "setting": "[1]", "result": "does not demonstrate any response; also recorded: does not appear to be reduced"}, {"measurement": "Inhibition of OS-induced FosB transcription", "setting": "[2]; 500 μM H2O2, 1 hour", "result": "modest dose response"}, {"measurement": "Inhibition of OS-induced FosB transcription", "setting": "[2]; 500 μM H2O2, 4 hours", "result": "the effect is quite clear"}, {"measurement": "Activation of FosB transcription by OS following pretreatment", "setting": "[2]; summary, 500 μM H2O2", "result": "dose-dependent reduction"}, {"measurement": "Inhibition of OS-induced cFos transcription", "setting": "[3]; 0.0001-0.2 mM pretreatment, 500 μM H2O2, 1 hour", "result": "modest threshold response"}, {"measurement": "Inhibition of OS-induced cFos transcription", "setting": "[3]; 0.2 mM dose, 500 μM H2O2, 1 hour", "result": "strong dose-dependence"}, {"measurement": "Inhibition of OS-induced cFos transcription", "setting": "[3]; 500 μM H2O2, 4 hours", "result": "threshold response for the lower levels of Vitamin C is still seen"}, {"measurement": "Activation of c-Fos transcription by OS following pretreatment", "setting": "[3]; summary, 500 μM H2O2", "result": "dose-dependent reduction"}, {"measurement": "Inhibition of OS-induced CRYBA transcription", "setting": "[4]; 500 μM H2O2, 1 hour", "result": "DD response is evident"}, {"measurement": "Inhibition of OS-induced CRYBA transcription", "setting": "[4]; 500 μM H2O2, 4 hours", "result": "DD response is more evident"}, {"measurement": "Activation of CRYBA transcription by OS following pretreatment", "setting": "[4]; summary, 500 μM H2O2", "result": "dose-dependent reduction"}, {"measurement": "Response of OS-induced ATF3 transcription to pretreatment", "setting": "[5]; 0.0001-0.2 mM pretreatment, 500 μM H2O2", "result": "we do not see a response; also recorded: does not appear to be reduced; also recorded: does not inhibit"}, {"measurement": "Response of OS-induced ATF3 transcription to pretreatment", "setting": "[5]; 500 μM H2O2, 4 hours", "result": "slight threshold response may be present"}]}]}
